From patent US20050148553A1, “Use of tigecycline, alone, or in combination with rifampin to treat osteomyelitis and/or septic arthritis” (priority 2003, published 2005)

Test: Whole body autoradiography after 30-minute 3 mg/kg IV infusion of [^14C]-tigecycline
Assay type: in vivo, Sprague-Dawley rats
Protocol: Male Sprague-Dawley and Long-Evans rats were obtained from Charles River Breeding Laboratories, Raleigh, N.C., and were quarantined for at least one week prior to the start of the study. […] The dosing solution was diluted and radioassayed directly in Ultima Gold scintillation counting cocktail (Packard Inc.). […] All pumps were calibrated prior to the administration of the compound. Rats were anesthetized with isoflurane prior to cardiac puncture exsanguination at the prescribed times after dosing. […] Control whole blood was collected from male Sprague-Dawley rats into tubes containing sodium heparin. Pooled blood was used to prepare the calibration standards and quality control samples. The standards were used to construct the standard curve for the quantification of radiolabeled drug distribution in tissues of whole blood cryosections. The quality controls, which were embedded in the same CMC block with each rat, were used for assessing intra- and inter-section variation in the thickness of rat whole-body cryosections. […] Immediately following euthanasia, each rat was totally immersed in a bath of hexane and dry ice (−75° C.) until frozen. Each carcass was dried and stored at −30° C. until embedded. […] Each frozen rat was sagitally sectioned at −20° C. A sufficient number of sections were collected to ensure sampling of all tissues of interest. The sections were dehydrated overnight in a cryochamber and then rapidly transferred to a dessicator containing CaSO4 to prevent condensation of atmospheric moisture while equilibrating to room temperature. The sections were mounted on cardboard and labeled with [^14C]-labeled black ink with a unique identification number. […] A small piece of Scotch tape was placed over the dried radioactive ink to prevent the contamination of the storage phosphor screens. Phosphor imaging plates, BAS-SR 2025 (Fuji Photo Film Co., Japan) were exposed to bright visible light for 20 minutes using an IP eraser (Raytest, USA Inc., New Castle, Del.) to remove background radiation. Sections and calibration blood standards were concurrently placed in direct contact with Ips and exposed for 7 days. All sections were stored at room temperature in a lead shielding box to minimize background levels. Phosphor images were generated using a Fujifilm BAS-5000 Bio-Imaging Analyzer and quantitated by MCID M2 Software, version 3.2 (Imaging Research Inc., St. Catherines, Ontario, Canada). The STDs and QCs were analyzed using the circular sampling tool in the MCID software program. Areas of interest in whole-body sections were manually outlined with the regional sampling tool to generate count data. Radioactive concentrations in select tissues were determined by digital analysis of the resulting autoradiograms on the basis of a calibration curve. […] The linear regression curve was then used to determine the concentration of unknown radioactivity of study samples. […] Blood samples were combusted using a Model 307 sample oxidizer (Packard Instrument Company). […] Research Triangle Park, N.C.), which applies a model-independent approach and standard procedures as described in Gibaldi and Perrier. Gibaldi, Pharmacokinetics, 1982. […] For IV infusion dosing, C30 min was the concentration at 30 minutes, the first sampling time point. The maximum plasma concentration (Cmax) and the corresponding time of peak concentration following IV administration were obtained directly by numerical inspection from the individual concentration-time data. The terminal half-life was calculated by the ratio of ln2/λz where λz is derived from the terminal slope of the concentration time curve. The area under the plasma concentration versus time curve from zero to infinity was calculated using the trapezoidal rule, where Clast is the last measurable plasma concentration. […]

CN(C)c1cc(NC(=O)CNC(C)(C)C)c(O)c2c1C[C@H]1C[C@H]3[C@H](N(C)C)C(O)=C(C(N)=O)C(=O)[C@@]3(O)C(O)=C1C2=O [[^14C]-Tigecycline]
AUC (Adrenal Gland): 29515 Ng eq hr/g | Mean concentration of total radioactivity (Adrenal Gland, 0.5 Hrs): 3580 ng equiv./g | Tissue:Plasma Ratio (Adrenal Gland, 0.5 Hrs): 4.00 | Mean concentration of total radioactivity (Adrenal Gland, 8.5 Hrs): 941 ng equiv./g | Tissue:Plasma Ratio (Adrenal Gland, 8.5 Hrs): 1.87 | Mean concentration of total radioactivity (Adrenal Gland, 24 Hrs): 68.9 ng equiv./g | Tissue:Plasma Ratio (Adrenal Gland, 24 Hrs): 4.67 | Mean concentration of total radioactivity (Adrenal Gland, 72 Hrs): 19.3 ng equiv./g | Tissue:Plasma Ratio (Adrenal Gland, 72 Hrs): 4.47 | Mean concentration of total radioactivity (Adrenal Gland, 168 Hrs): <5.10 ng equiv./g | Mean concentration of total radioactivity (Adrenal Gland, 336 Hrs): <5.10 ng equiv./g | AUC (Adrenal Gland, first AUC column): 29153 Ng eq hr/g | AUC (Blood): 1261 Ng eq hr/g | Tissue:Plasma Ratio (Blood, 0.5 Hrs): 1.43 | Tissue:Plasma Ratio (Blood, 8.5 Hrs): 1.24 | Tissue:Plasma Ratio (Blood, 24 Hrs): 3.01 | Tissue:Plasma Ratio (Blood, 72 Hrs): 2.74 | AUC (Blood, first AUC column): 12063 Ng eq hr/g | AUC (Bone): 794704 Ng eq hr/g | AUC (Bone Marrow): 47468 Ng eq hr/g | Mean concentration of total radioactivity (Bone Marrow, 0.5 Hrs): 4376 ng equiv./g | Tissue:Plasma Ratio (Bone Marrow, 0.5 Hrs): 4.89 | Mean concentration of total radioactivity (Bone Marrow, 8.5 Hrs): 1562 ng equiv./g | Tissue:Plasma Ratio (Bone Marrow, 8.5 Hrs): 3.10 | Mean concentration of total radioactivity (Bone Marrow, 24 Hrs): 291 ng equiv./g | Tissue:Plasma Ratio (Bone Marrow, 24 Hrs): 19.7 | Mean concentration of total radioactivity (Bone Marrow, 72 Hrs): 22.5 ng equiv./g | Tissue:Plasma Ratio (Bone Marrow, 72 Hrs): 5.21 | Mean concentration of total radioactivity (Bone Marrow, 168 Hrs): <5.10 ng equiv./g | Mean concentration of total radioactivity (Bone Marrow, 336 Hrs): <5.10 ng equiv./g | AUC (Bone Marrow, first AUC column): 47116 Ng eq hr/g | Mean concentration of total radioactivity (Bone, 0.5 Hrs): 3312 ng equiv./g | Tissue:Plasma Ratio (Bone, 0.5 Hrs): 3.70 | Mean concentration of total radioactivity (Bone, 8.5 Hrs): 3794 ng equiv./g | Tissue:Plasma Ratio (Bone, 8.5 Hrs): 7.53 | Mean concentration of total radioactivity (Bone, 24 Hrs): 2711 ng equiv./g | Tissue:Plasma Ratio (Bone, 24 Hrs): 184 | Mean concentration of total radioactivity (Bone, 72 Hrs): 1787 ng equiv./g | Tissue:Plasma Ratio (Bone, 72 Hrs): 414 | Mean concentration of total radioactivity (Bone, 168 Hrs): 1526 ng equiv./g | Mean concentration of total radioactivity (Bone, 336 Hrs): 720 ng equiv./g | AUC (Bone, first AUC column): 569498 Ng eq hr/g | AUC (Brain): 2865 Ng eq hr/g | Cmax (Brain): 54 Ng equiv/g | Mean concentration of total radioactivity (Brain, 0.5 Hrs): 35.8 ng equiv./g | Tissue:Plasma Ratio (Brain, 0.5 Hrs): 0.040 | Mean concentration of total radioactivity (Brain, 8.5 Hrs): 54.3 ng equiv./g | Tissue:Plasma Ratio (Brain, 8.5 Hrs): 0.108 | Mean concentration of total radioactivity (Brain, 24 Hrs): 35.8 ng equiv./g | Tissue:Plasma Ratio (Brain, 24 Hrs): 2.42 | Mean concentration of total radioactivity (Brain, 72 Hrs): 13.3 ng equiv./g | Tissue:Plasma Ratio (Brain, 72 Hrs): 3.10 | Mean concentration of total radioactivity (Brain, 168 Hrs): <5.10 ng equiv./g | Mean concentration of total radioactivity (Brain, 336 Hrs): <5.10 ng equiv./g | AUC (Brain, first AUC column): 2256 Ng eq hr/g | AUC (Eyes): 3221 Ng eq hr/g | Cmax (Eyes): 108 Ng equiv/g | Mean concentration of total radioactivity (Eyes, 0.5 Hrs): 106 ng equiv./g | Tissue:Plasma Ratio (Eyes, 0.5 Hrs): 0.118 | Mean concentration of total radioactivity (Eyes, 8.5 Hrs): 108 ng equiv./g | Tissue:Plasma Ratio (Eyes, 8.5 Hrs): 0.215 | Mean concentration of total radioactivity (Eyes, 24 Hrs): 36.6 ng equiv./g | Tissue:Plasma Ratio (Eyes, 24 Hrs): 2.46 | Mean concentration of total radioactivity (Eyes, 72 Hrs): 6.76 ng equiv./g | Tissue:Plasma Ratio (Eyes, 72 Hrs): 1.57 | Mean concentration of total radioactivity (Eyes, 168 Hrs): <5.10 ng equiv./g | Mean concentration of total radioactivity (Eyes, 336 Hrs): <5.10 ng equiv./g | AUC (Eyes, first AUC column): 3060 Ng eq hr/g | AUC (Fat): 3500 Ng eq hr/g | Mean concentration of total radioactivity (Fat, 0.5 Hrs): 450 ng equiv./g | Tissue:Plasma Ratio (Fat, 0.5 Hrs): 0.50 | Mean concentration of total radioactivity (Fat, 8.5 Hrs): 144 ng equiv./g | Tissue:Plasma Ratio (Fat, 8.5 Hrs): 0.287 | Mean concentration of total radioactivity (Fat, 24 Hrs): <5.1 ng equiv./g | Mean concentration of total radioactivity (Fat, 72 Hrs): <5.10 ng equiv./g | Mean concentration of total radioactivity (Fat, 168 Hrs): <5.10 ng equiv./g | Mean concentration of total radioactivity (Fat, 336 Hrs): <5.10 ng equiv./g | AUC (Fat, first AUC column): 2489 Ng eq hr/g | AUC (Heart): 40179 Ng eq hr/g | Mean concentration of total radioactivity (Heart, 0.5 Hrs): 5657 ng equiv./g | Tissue:Plasma Ratio (Heart, 0.5 Hrs): 6.32 | Mean concentration of total radioactivity (Heart, 8.5 Hrs): 1138 ng equiv./g | Tissue:Plasma Ratio (Heart, 8.5 Hrs): 2.26 | Mean concentration of total radioactivity (Heart, 24 Hrs): 69.9 ng equiv./g | Tissue:Plasma Ratio (Heart, 24 Hrs): 4.74 | Mean concentration of total radioactivity (Heart, 72 Hrs): 6.98 ng equiv./g | Tissue:Plasma Ratio (Heart, 72 Hrs): 1.62 | Mean concentration of total radioactivity (Heart, 168 Hrs): <5.10 ng equiv./g | Mean concentration of total radioactivity (Heart, 336 Hrs): <5.10 ng equiv./g | AUC (Heart, first AUC column): 40083 Ng eq hr/g | AUC (Kidney): 70704 Ng eq hr/g | Cmax (Kidney): 7601 Ng equiv/g | Mean concentration of total radioactivity (Kidney, 0.5 Hrs): 7601 ng equiv./g | Tissue:Plasma Ratio (Kidney, 0.5 Hrs): 8.49 | Mean concentration of total radioactivity (Kidney, 8.5 Hrs): 1725 ng equiv./g | Tissue:Plasma Ratio (Kidney, 8.5 Hrs): 3.42 | Mean concentration of total radioactivity (Kidney, 24 Hrs): 140 ng equiv./g | Tissue:Plasma Ratio (Kidney, 24 Hrs): 9.49 | Mean concentration of total radioactivity (Kidney, 72 Hrs): 47.9 ng equiv./g | Tissue:Plasma Ratio (Kidney, 72 Hrs): 11.1 | Mean concentration of total radioactivity (Kidney, 168 Hrs): 41.3 ng equiv./g | Mean concentration of total radioactivity (Kidney, 336 Hrs): 13.9 ng equiv./g | AUC (Kidney, first AUC column): 68333 Ng eq hr/g | AUC (Liver): 53527 Ng eq hr/g | Cmax (Liver): 7300 Ng equiv/g | Mean concentration of total radioactivity (Liver, 0.5 Hrs): 7300 ng equiv./g | Tissue:Plasma Ratio (Liver, 0.5 Hrs): 8.16 | Mean concentration of total radioactivity (Liver, 8.5 Hrs): 1192 ng equiv./g | Tissue:Plasma Ratio (Liver, 8.5 Hrs): 2.37
